Data: article PMC11674187, “Inhibitory Effects of Cenobamate on Multiple Human Cardiac Ion Channels and Possible Arrhythmogenic Consequences” (Biomolecules, 2024)
Where “and” joins values, the source holds several entries; their conditions need not be identical. Equal values may be shown once. Read-outs that look alike come from different tables or passages of the source.

Key:
hNav1.5 = target: T1, hNav1.5 (Homo sapiens, UniProt Q14524); assay: State-dependent blocking/unblocking kinetics of Nav1.5 (use-dependent block protocol, inactivation time constants); type: cell-based
T1 construct: host or cells: HEK293T
T1 sequence (Q14524 whole entry): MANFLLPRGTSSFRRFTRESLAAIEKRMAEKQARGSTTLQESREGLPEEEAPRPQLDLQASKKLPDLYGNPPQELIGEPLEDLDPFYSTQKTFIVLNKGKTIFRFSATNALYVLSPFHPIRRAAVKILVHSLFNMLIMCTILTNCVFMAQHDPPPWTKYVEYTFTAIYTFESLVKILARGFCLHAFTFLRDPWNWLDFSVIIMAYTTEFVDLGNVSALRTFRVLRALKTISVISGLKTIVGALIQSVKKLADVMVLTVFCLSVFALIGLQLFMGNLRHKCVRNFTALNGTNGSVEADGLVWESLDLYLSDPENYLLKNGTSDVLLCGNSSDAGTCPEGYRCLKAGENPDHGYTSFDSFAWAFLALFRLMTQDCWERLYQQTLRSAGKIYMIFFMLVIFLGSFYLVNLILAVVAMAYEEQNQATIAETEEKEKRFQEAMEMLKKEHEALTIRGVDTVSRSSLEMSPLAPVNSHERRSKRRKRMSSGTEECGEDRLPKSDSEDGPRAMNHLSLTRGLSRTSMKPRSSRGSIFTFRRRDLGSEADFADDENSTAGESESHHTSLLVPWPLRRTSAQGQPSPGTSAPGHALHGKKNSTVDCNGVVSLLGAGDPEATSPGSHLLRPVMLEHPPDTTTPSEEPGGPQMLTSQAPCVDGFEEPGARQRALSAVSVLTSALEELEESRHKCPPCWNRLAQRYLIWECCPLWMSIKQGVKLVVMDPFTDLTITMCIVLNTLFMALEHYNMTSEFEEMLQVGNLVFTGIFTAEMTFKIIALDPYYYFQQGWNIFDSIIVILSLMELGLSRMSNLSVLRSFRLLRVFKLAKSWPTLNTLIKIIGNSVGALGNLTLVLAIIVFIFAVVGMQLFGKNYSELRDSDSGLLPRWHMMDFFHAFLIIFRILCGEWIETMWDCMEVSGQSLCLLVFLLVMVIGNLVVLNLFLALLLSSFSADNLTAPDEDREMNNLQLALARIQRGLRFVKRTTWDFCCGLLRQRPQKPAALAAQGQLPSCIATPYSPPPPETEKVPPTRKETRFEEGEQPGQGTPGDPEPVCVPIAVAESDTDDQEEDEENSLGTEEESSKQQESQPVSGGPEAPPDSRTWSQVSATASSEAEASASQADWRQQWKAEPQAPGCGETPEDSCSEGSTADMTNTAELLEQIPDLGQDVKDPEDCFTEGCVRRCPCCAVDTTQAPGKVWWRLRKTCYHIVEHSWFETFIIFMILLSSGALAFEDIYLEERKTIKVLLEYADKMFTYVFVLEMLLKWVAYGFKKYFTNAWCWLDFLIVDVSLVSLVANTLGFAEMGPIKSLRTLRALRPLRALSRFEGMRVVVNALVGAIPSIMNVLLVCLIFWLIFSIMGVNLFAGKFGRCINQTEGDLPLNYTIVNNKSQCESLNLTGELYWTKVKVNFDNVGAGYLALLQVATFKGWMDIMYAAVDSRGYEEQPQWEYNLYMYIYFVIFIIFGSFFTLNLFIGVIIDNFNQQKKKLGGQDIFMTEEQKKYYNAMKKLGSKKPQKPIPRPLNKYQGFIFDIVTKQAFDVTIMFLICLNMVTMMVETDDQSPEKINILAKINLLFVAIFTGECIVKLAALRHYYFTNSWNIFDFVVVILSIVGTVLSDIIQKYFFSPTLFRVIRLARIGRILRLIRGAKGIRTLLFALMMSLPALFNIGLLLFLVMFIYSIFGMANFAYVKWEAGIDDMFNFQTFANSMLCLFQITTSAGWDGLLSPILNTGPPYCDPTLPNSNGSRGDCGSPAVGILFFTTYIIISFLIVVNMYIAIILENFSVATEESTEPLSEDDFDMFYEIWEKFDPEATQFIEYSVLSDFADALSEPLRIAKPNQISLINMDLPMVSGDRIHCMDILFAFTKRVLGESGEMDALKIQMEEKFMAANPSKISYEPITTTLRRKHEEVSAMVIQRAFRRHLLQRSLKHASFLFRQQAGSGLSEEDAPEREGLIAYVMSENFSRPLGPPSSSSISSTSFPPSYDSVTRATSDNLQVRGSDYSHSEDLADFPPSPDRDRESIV
Procedure: Manual whole-cell patch-clamp experiments were performed at room temperature, with equipment as described in previous studies. Pipettes were pulled from Clark borosilicate glass capillaries with inner filament (GC150F-10, Harvard Apparatus, Holliston, MA, USA) and had typical resistances of 2–3 MΩ. Recordings were performed with a WPC-100 resistive feedback amplifier (ESF electronic, Göttingen, Germany) or an Axopatch 200B amplifier (Axon Instruments—Molecular Devices, San Jose, CA, USA) connected to a Digidata 1322A interface driven by the pClamp 8.2 Clampex module (Axon Instruments, part of Molecular Devices, San Jose, CA, USA). For different types of ion channel, we applied specific voltage-clamp protocols as follows: • - For hERG, a standard two-step activation protocol was used: holding at −70 mV, a 100 ms step at −50 mV used as current reference for measurements, a 2 s depolarizing step at +40 mV, followed by a 2 s step at −50 mV to elicit the peak hERG current by rapid recovery from inactivation, repeated sweeps at 10 s intervals, plus specific protocols to assess the voltage dependence of activation and inactivation, as described in Thomet et al., 2021 [11]. • - For hKv7.1 + minK, a general two-step activation protocol was used: holding at −110 mV, a 250 ms step at −80 mV with a brief (50 ms) step at −90 mV at the middle to monitor seal quality, a 3000 ms depolarizing step at +60 mV, followed by a 1000 ms step at −50 mV; repeated sweeps at 20 s intervals. • - For hCav1.2, a pharmacology protocol with holding at −80 mV, a first 100 ms step at −50 mV and a second 200 ms step at 0 mV, repeated sweeps at 20 s intervals with drug application after 5 sweeps if current levels were steady, plus an activation–inactivation protocol with holding at −80 mV, 1000 ms depolarizing steps from −80 to +50 mV in 10 mV increments, followed by 250 ms steps at +10 mV and a return to −80 mV; 14 sweeps at 20 s intervals. • - For hNav1.5, multiple voltage protocols were used, including the following: • - A standard pharmacology protocol with holding at −90 mV, a 20 ms step at −110 mV for seal monitoring, a 40 ms activation step at −10 mV, and repeated sweeps at 1 s intervals.
To estimate state-specific blocking and unblocking kinetics, we applied, initially and during exposure to cenobamate, a special voltage protocol devised for use-dependent block, with repeated brief depolarizing pulses at −10 mV separated by variable intervals at a hyperpolarized potential (−120 mV), with durations between 5 and 50 ms, as described in Section 2. Recordings using this protocol in initial conditions and with cenobamate application are illustrated in Figure S3 of the Supplementary Materials. By noting with td = 10 ms and tr = 5–50 ms the times spent at a depolarized potential and at a resting hyperpolarized potential during each pulse, with on the fraction of available (non-inactivated or blocked) channels that produce the peak Na^+ current during each depolarizing pulse of the sequence, and with τi and τr, the apparent macroscopic time constants of inactivation and recovery from inactivation in control conditions (in the absence of a blocker), we obtained using several approximations a general recurrence formula that allows computation for each experiment of the recovery time constant, knowing the inactivation time constant (obtained by the monoexponential fit of the inactivation part of the recording during the depolarization pulse) and the decay in peak INa amplitude during pulse n relative to the peak amplitude during the preceding pulse (1 − on)/on−1 (detailed explanations in Section S1 of the Supplementary Materials): τr=tr/ln1−e^−td/τi−ln1−on/on−1

neuronal Na+ channels = system: neuronal Na+ channels; set-up: method as in PMID 33993416; conditions: ref [6]; read-out: IC50 on late (persistent) neuronal Na+ current; cited from earlier work
hNav1.7 = system: hNav1.7; set-up: method as in ref [5] p. 8; conditions: hNav1.7 in HEK293 cells, ref [5] p. 8, cited from earlier work
[1] = system: voltage-gated sodium channels in rat hippocampal CA3 neurons; conditions: cited from earlier work; for IC50: newborn rat CA3 hippocampal neurons, ref [22]
[2] = set-up: method as in PMID 33031714; conditions: adults with focal onset seizures; ref [2]; cited from earlier work
[3] = cited from earlier work
[4] = read-out: IC50 on late (persistent) INa
[5] = read-out: estimated IC50 on peak (transient) Na+ current

NC(=O)O[C@@H](Cn1ncnn1)c1ccccc1Cl [cenobamate]
kib (blocking rate, inactivated conformation) (hNav1.5): 669800 M⁻¹ s⁻¹ | kib (model script) (hNav1.5): 669800 M⁻¹ s⁻¹ | kib^−1 (unblocking rate, inactivated conformation) (hNav1.5): 0.1825 ms^−1 | kob (blocking rate, open conformation) (hNav1.5): 2.15e+06 M⁻¹ s⁻¹ | kob (model script) (hNav1.5): 2.15e+06 M⁻¹ s⁻¹ | kob^−1 (unblocking rate, open conformation) (hNav1.5): 0.189 ms^−1 | Kd (hNav1.5; Kd (I)): 273 µM | Kd (hNav1.5; Kd (O), open conformation, assumed equivalent to IC50 on peak INa): 87.8 µM | 1/τib (kib × [D] + kib^−1) (hNav1.5; [D] 98.44 µM): 0.2484 ms^−1 | est. τib (hNav1.5; blocking/unblocking time constant of inactivated conformation, cenobamate estimated 98.44 µM, per experiment and mean ± SD): 4.08 ms and 3.83 ms and 4.94 ms and 3.25 ms | Rate (1/τ) with cenobamate (hNav1.5; cenobamate 200 µM, initial 0.94): 1.56 ms^−1 | τi+ob (hNav1.5; use-dependent block protocol during cenobamate (estimated 98.44 µM), per experiment and mean ± SD): 2.23 ms and 3.04 ms and 2.94 ms and 1.73 ms | IC50 (neuronal Na+ channels): 59 µM | IC50 (hNav1.7; [4]): 41.8 µM | IC50 (hNav1.7; [5]): > 500 µM | change in half-inactivation potential ([1]; 100 µM cenobamate, ref [22] Nakamura et al., 2019): −6 mV | IC50 [1, 4]: 53.1 µM | IC50 [1, 5]: > 500 µM | Kd ([1]; ref [22] Nakamura et al., 2019, read-out: KR (affinity for resting (closed) conformation)): 798 µM | reduction in monthly seizure frequency [2]: up to 55% | seizure-free rates [2]: up to 28% | protein binding ([3]; human, ref [5] p.10): 61.0% | average binding to plasma proteins ([3]; study YKP3089C018, ref [5] p. 13): ~ 60% and 60%
